According to US20100204098A1 (priority 2007, published 2010):

Tests used:
M. luteus = type: cell-based, Micrococcus luteus
F. oxysporum = type: cell-based, Fusarium oxysporum
F. graminearum = type: cell-based, Fusarium graminearum
E. coli = type: cell-based, Escherichia coli
L. maculans = type: cell-based, Leptosphaeria maculans
A. rabiei = type: cell-based, Ascochyta rabiei

| Substance | concentration at which activity against M. luteus was shown (M. luteus) | concentration level at which activity against spores of F. oxysporum was shown (F. oxysporum) | activity against F. graminearum of fractions purified from hemolymph (F. graminearum) | concentration level at which activity against spores of F. graminearum was shown (F. graminearum) | concentration at which activity against E. coli was shown (E. coli) | concentration level at which activity against spores of L. maculans was shown (L. maculans) | activity against M. luteus (M. luteus) | activity against spores of F. oxysporum (F. oxysporum) | concentration level at which activity against spores of A. rabiei was shown (A. rabiei) | activity against E. coli (E. coli) |
| --- | --- | --- | --- | --- | --- | --- | --- | --- | --- | --- |
| Gm-moricinC3: Moricin-like peptide from Galleria mellonella, SEQ ID NO:5; purified from hemolymph and synthesised by Auspep (KVPIGAIKKGGKIIKKGLGVIGAAGTAHEVYSHVKNRQ; listed as Galleria mellonella) | 100 µM | 100 µM | activity | 10 µM | 100 µM | 100 µM |  |  |  |  |
| Gm-moricinC4/C5: Mature Gm-moricinC4 and Gm-moricinC5 from Galleria mellonella, identical mature amino acid sequences (SEQ ID NO:1 and 3), synthesised by Auspep (KVPVGAIKKGGKAIKTGLGVVGAAGTAHEVYSHIRNRH; listed as Galleria mellonella) |  |  |  | 100 µM | 100 µM | 100 µM | no activity | no activity |  |  |
| Gm-moricinD: Moricin-like antifungal peptide from Galleria mellonella, SEQ ID NO:7; purified from hemolymph and synthesised by Auspep (KGIGSALKKGGKIIKGGLGALGAIGTGQQVYEHVQNRQ; listed as Galleria mellonella) |  | 100 µM | activity | 10 µM |  | 100 µM | no activity |  | 100 µM | no activity |
